Test results as given in paper PMC5515887, “Ruthenium-conjugated chrysin analogues modulate platelet activity, thrombus formation and haemostasis with enhanced efficacy” (Scientific Reports, 2017).
Read-outs that look alike come from different tables or passages of the source.

Columns and labels:
washed human platelets = test: Platelet uptake by LC-MS; type: in vitro ADME; conditions: 100 μM compound, 5 minutes
Procedure: The compounds taken up by the platelets were extracted with methanol (400 µL). The methanol extract was dried using vacuum centrifugation and reconstituted in 200 µL of methanol for mass spectrometry (LC-MS) analysis.

platelets (PRP) = test: LDH cytotoxicity assay in PRP; type: cell-based, human; conditions: between 6.25 and 100 μM
Procedure: In order to examine whether the native chrysin and its synthetic derivatives exert any cytotoxic effects in platelets at the concentrations used in this study, the lactate dehydrogenase (LDH) assay was performed using PRP.
The LDH cytotoxicity assay was performed using the LDH Cytotoxicity Assay Kit (Pierce, Thermo Fisher, UK) according to the manufacturer’s instructions. In brief, the PRP was incubated at 37 °C for 30 minutes. […] Following incubation, the reaction mixture (provided in the kit) was added to the PRP and incubated for 30 minutes. The reaction was then stopped using a stop solution provided in the kit. The absorbance of the mixture was measured at 490–650 nm using a Fluostar Optima spectrofluorimeter (BMG Labtech, Germany). Results provided represent duplicate absorbance measures from three separate donors.
Figure S7: Cytotoxic effects of chrysin and its synthetic derivatives in platelets. PRP was treated with different concentrations (as used in other experiments) of chrysin or its synthetic derivatives and the LDH cytotoxicity assay was performed according to the manufacturer’s instructions. The data were obtained using platelets from three separate donors and duplicate measures were used for each donor.
(1 picture or pasted object on this page, not shown here)

human washed platelets = test: Intracellular calcium mobilisation in washed platelets (Fluo-4 AM); type: cell-based; conditions: CRP-XL 0.5 μg/mL
Procedure: Based on the above results achieved in washed platelets and PRP, chrysin and Ru-thio-chrysin were tested to evaluate their effects on the modulation of calcium mobilisation.
The calcium traces (Ai and Bi) shown are representative of three separate experiments. The maximum fluorescence obtained with each sample was converted into percentages to calculate the level of calcium mobilisation obtained with vehicle and chrysin or Ru-thio-chrysin treated samples.
The intracellular calcium levels in platelets were measured using Fluo-4 AM calcium-sensitive dye by spectrofluorimetry. […] Data were analysed by calculating the maximum level of calcium released in each sample.

[1] = system: human platelet-rich plasma (PRP); test: CRP-XL-induced platelet aggregation in human platelet-rich plasma (optical aggregometry); type: cell-based
Procedure: Therefore, to determine the effects of various concentrations of chrysin and its derivatives in the presence of plasma proteins, aggregation assays were performed using human platelet-rich plasma (PRP) and 0.5 μg/mL CRP-XL.
Figure 3 Impact of chrysin and its derivatives on platelet activation in platelet-rich plasma. […] The platelet aggregation was monitored for 5 minutes. The traces shown are representative of three separate experiments.
The preparation of human platelets and aggregation assays were performed using standard protocols as described by us previously, [16]. Briefly, human blood was collected in 3.2% citrate containing vacutainers via venepuncture from healthy, aspirin-free individuals with informed consent in accordance with the methods approved by the University of Reading Research Ethics Committee. All methods were performed in accordance with the relevant institutional and national guidelines and regulations. Blood samples were centrifuged at 102 g for 20 minutes at room temperature to separate the PRP, which was used in aggregation, flow cytometry, static platelet adhesion, calcium mobilisation and clot retraction assays. For the preparation of washed platelets, 50 mL of blood samples were mixed with 7.5 mL of ACD (acid citrate dextrose) (20 g/L glucose, 25 g/L sodium citrate and 15 g/L citric acid) and centrifuged at 102 g for 20 minutes at room temperature. The PRP was carefully aspirated from the other blood cells prior to mixing with 3 mL of ACD and centrifuging at 1413 g for 10 minutes at room temperature. The resulting platelet pellet was re-suspended in modified Tyrodes-HEPES buffer (2.9 mM KCl, 134 mM NaCl, 0.34 mM Na2HPO4.12H20, 1 mM MgCl2, 12 mM NaHCO3, 20 mM HEPES, pH 7.3) and washed by centrifuging again at 1413 g for 10 minutes. The resulting platelet pellet was suspended in modified Tyrodes-HEPES buffer at a density of 4 × 10^8 cells/mL for aggregation, dense granule secretion, cellular uptake studies and calcium mobilisation assays. Human platelet aggregation was performed using CRP-XL as an agonist in the presence and absence of various concentrations of chrysin and its synthetic derivatives by optical aggregometry. A vehicle control [DMSO at a concentration of less than 0.1% (v/v)] was included in all the experiments. Dense granule secretion in platelets was determined by measuring the ATP release using the luciferin-luciferase reagent by lumi-aggregometry (Chrono-Log, USA). SDS-PAGE and immunoblotting analysis were performed using standard protocols. The rabbit anti-phospho-specific antibodies for human AKT pS473, FAK pY397 and Src pY527 were obtained from Abcam, UK and rabbit anti-human 14-3-3ζ (Santa Cruz Biotechnology, USA) was used to detect protein 14-3-3ζ as a loading control in immunoblot assays. The Cy5-conjugated goat anti-rabbit IgG (Life technologies, UK) was used as the secondary antibody.

[2] = system: human platelet-rich plasma; conditions: PRP; 100 μM compound; CRP-XL 0.5 μg/mL
Text: The calcium traces (Ai and Bi) shown are representative of three separate experiments. […] The platelets were lysed and used for immunoblot analysis to detect the level of AKT phosphorylation at residue S473, FAK phosphorylation at Y397 and phosphorylation of Src at Y527. The level of 14-3-3ζ protein was detected as a loading control. The cropped images of the blots shown here are representative of three separate experiments. The uncropped full length blots are presented in Supplementary Information (Figure S8).

[3] = system: inside-out signalling to integrin αIIbβ3; conditions: PRP, CRP-XL 0.5 μg/mL
Procedure: The level of fluorescence obtained with vehicle control was taken as 100% to calculate the extent of inhibition in chrysin and its derivatives-treated samples. R represents ‘resting’ platelets. Cumulative data represent mean ± S.D. (n = 4). […] Following incubation, clotting was initiated by the addition of 1 U/mL thrombin and the clot retraction was monitored for three hours. The remaining clot weight at three hours was measured to analyse the extent of retraction process. The image shown on the right is representative of four separate experiments. *Indicates significance with respect to controls and ^#indicates significance with respect to the respective chrysin concentrations; p values shown (*^,# p < 0.05, **^,## p < 0.01 and ***^,### p < 0.001) are as calculated by one-way ANOVA using Graphpad Prism.
The platelets (PRP) were treated with a vehicle control [0.1% (v/v) DMSO] or with different concentrations of chrysin and its synthetic derivatives prior to activation with CRP-XL (0.5 µg/mL). The levels of fibrinogen binding and P-selectin exposure were measured using FITC-labelled anti-human fibrinogen antibodies (Dako, UK) and PECy5-labelled CD62P antibodies (BD Biosciences, UK), respectively. The median fluorescence intensity was used to assess the levels of fibrinogen binding and P-selectin exposure on the platelet surface. The level of fluorescence obtained with the vehicle control was taken as 100% when compared with the treated samples.

| Compound | uptake in platelets (washed human platelets) [µM] | cytotoxic effects in platelets (LDH) (platelets (PRP)) | effect on calcium mobilisation in washed platelets (human washed platelets) | effect on platelet aggregation at lower concentrations ([1]; PRP, 6.25 μM and 12.5 μM compound, CRP-XL 0.5 μg/mL) | reduction in platelet aggregation ([1]; PRP, 100 μM compound, CRP-XL 0.5 μg/mL) | reduction in calcium mobilisation [2] | inhibition of fibrinogen binding ([3]; 6.25 μM compound) | inhibition of fibrinogen binding ([3]; 100 μM compound) [%] | effect on platelet aggregation in PRP ([1]; PRP, CRP-XL 0.5 μg/mL) | greater inhibition of platelet function and thrombus formation in vitro than chrysin ([1]; physiologically relevant conditions such as platelet-rich plasma and whole blood) [fold] |
| --- | --- | --- | --- | --- | --- | --- | --- | --- | --- | --- |
| O=c1cc(-c2ccccc2)oc2cc(O)cc(O)c12 [chrysin] | 6.86 ± 0.27 | did not show significant cytotoxic effects | greater inhibitory effects on calcium mobilisation than Ru-thio-chrysin | did not exhibit significant effects | around 40% | – | – | – | – | – |
| chlorido [(5-oxo-κO)-7-hydroxy-(2-phenyl)-4H-chromen-4-thionato-κS] (η6-p-cymene)ruthenium(II) [Ru-thio-chrysin] | – | – | – | – | – | around 60% | 15–20% | ~90 | significant effect at lower concentrations including 6.25 μM | 4 |
